What was measured:
[1] = tested on: Na^+ transport, MDCK cells; assay: In vitro diuretic activity: Na^+ transport inhibition, Transwell chamber seeded with MDCK cells; format: cell-based, canine; details: Canis lupus familiaris, MDCK, 100 μmol/L, MDCK cells in Transwell; mean ± SD of three replicates; negative = promotion; read-out: Transport Inhibition Rate (%) Na^+
From the text: (§1) The traditional methods for screening diuretic drugs are mostly in vivo experiments with mice, which have a long experimental cycle and are not suitable for screening massive compounds. As we know, the generation and excretion of urine involve two processes: glomerular filtration and tubular reabsorption. Reabsorption refers to the process in which the renal tubular epithelial cells transport water and certain solutes from the tubular fluid (urine) partially or entirely back into the bloodstream. Then, 99% of the water in the original urine filtered by the glomerulus is reabsorbed, and the transport of Na^+ and Cl^− plays an important role in this process. Thiazide and furosemide diuretics exert their diuretic effects by inhibiting the transport of Na^+ and Cl^−, which affects the tubular reabsorption of the original urine. Based on this principle, we established a new type of cell screening model for diuretic active drugs. Madin–Darby canine kidney (MDCK) cells were inoculated into a Transwell chamber to simulate the renal tubules. This cell model could transport and absorb external NaCl, simulating the reabsorption phenomenon. […] The effectiveness of this model was confirmed by the validation of hydrochlorothiazide, which is a commercially available diuretic drug and could inhibit the transport of Na^+ and Cl^− in renal tubules.
(§2) Generally, the transport of Na^+ and Cl^− plays an important role in glomerular filtration and tubular reabsorption. […] For example, inhibition rates of transport of 6a and 6c were over 30%, and had better inhibitory ability than barbatic acid. […] When ethyl, propyl, and benzyl were substituted on R^1, the introduction of any group could not enhance the inhibitory activity of barbatic acid, such as 6h–u and 6j′–6p′.
(§3) Log-phase MDCK cells were seeded in the upper chambers of Transwell plates (4 × 10^4 cells/well), and 800 µL of complete culture medium was added to the lower chambers. After 24 h of incubation at 37 °C, the electrical resistance of the upper chamber cells was measured one by one (R = (Rcell − Rblank) × 0.04π). When the electrical resistance of the upper chamber cells reached ≥300 Ω cm^2, the upper chamber medium was removed and replaced with the drug solution. The blank group (given normal saline), the experimental group (1, 6a–6p′, 100 μmol/L), and the hydrochlorothiazide group (100 μmol/L) were set, and each well was treated with 100 µL of the corresponding solution. The cells were then further incubated for 24 h. After that, the upper and lower chamber fluids were removed, and 200 µL of NaCl solution (15 mg/mL) was added to the upper chamber, while 800 µL of DMEM was added to the lower chamber for continued incubation. At 0.5, 1, 2, and 3 h, 50 µL of the lower chamber fluid was taken and the OD values were measured using Na^+ and Cl^− detection kits. The transport inhibition rate (%) was calculated as follows: transport inhibition rate (%) = (ODblank − ODexperimental)/ODblank × 100%.

[2] = tested on: Cl^− transport, MDCK cells; assay: In vitro diuretic activity: Cl^− transport inhibition, Transwell chamber seeded with MDCK cells; format: cell-based, canine; details: Canis lupus familiaris; 100 μmol/L, MDCK cells in Transwell; mean ± SD of three replicates; negative = promotion; read-out: Transport Inhibition Rate (%) Cl^−
From the text: as §1, §2, §3

[3] = tested on: MDCK cells; assay: MTT cytotoxicity assay on MDCK cells; format: cell-based, canine; details: Canis lupus familiaris, 100 μmol/L, 24 h, mean ± SD of three replicates, read-out: Growth Inhibition Rate (%)
Procedure: First, we used the MTT method to perform cytotoxicity of barbatic acid derivatives (1, 6a–6p′) on MDCK cells at the concentration of 100 μmol/L, and the results are shown in Table 1.
The MTT assay was used to evaluate the cytotoxicity of the target compounds on DMCK cells. Logarithmic-growth-phase DMCK cells were seeded in a 96-well plate (10^4 cells/well) and incubated in a cell culture incubator for 24 h. The culture medium was then removed and replaced with a drug-containing medium for the treatment groups (1, 6a–6p′, 100 μmol/L), normal saline for the control group, or hydrochlorothiazide (100 μmol/L) for the positive control group. Each well was treated with 100 µL of the respective solution and incubated for an additional 24 h. The culture medium was then removed and replaced with a DMEM solution containing 20 µL of MTT (5 mg/mL). After incubating for 4 h, the liquid in each well was removed and replaced with 150 µL of DMSO, which was shaken for 10 min to ensure thorough mixing. The absorbance at 490 nm was measured to determine the optical density (OD) of each well. Cell growth inhibition rate (%) = (ODBlank − ODExperimental)/ODBlank × 100%.

[4] = tested on: Ca^2+ transport, MDCK cells; assay: In vitro litholytic activity: Ca^2+ transport inhibition, Transwell chamber with MDCK cells; format: cell-based, canine; details: Canis lupus familiaris, 100 μmol/L, mean ± SD of three replicates, read-out: Transport Inhibition Rate (%) Ca^2+
Procedure: (§4) On the other hand, all compounds had little inhibitory effect on Ca^2+ transport. The structure–activity relationships (SARs) were also observed. […] On the other hand, the introduction of the benzyl group to the R^1 or R^2 of barbatic acid could not lead to more promising compounds, such as 6a, 6n, 6u, 6b′, and 6i′–p′.
(§5) Logarithmic-phase DMCK cells were inoculated in the upper chamber of a Transwell plate (4 × 10^4 cells/well). Then, 800 µL of complete culture medium was added to the lower chamber, and the cells were incubated for 24 h until they adhered to the wall. The resistance value of the upper chamber cells was measured one by one at 37 °C (R = (Rcell − Rblank) × 0.04π). When the resistance value of the upper chamber cells was ≥300 Ω cm^2, the upper chamber liquid was discarded for drug administration. A control group (given physiological saline) and an experimental group (1, 6a–6p′, 100 μmol/L) were set up, and 100 µL of each drug was administered per well, followed by continued incubation for 24 h. Then, the upper and lower chamber liquids were discarded, and 200 µL of CaC2O4 (30 mmol/L) solution was added to the upper chamber, and 800 µL of PBS solution was added to the lower chamber for continued incubation. At 0.5, 1, 2, and 3 h, 50 µL of the lower chamber liquid was taken and then tested using the Ca^2+ and C2O4^2− detection kits and the following detection methods. The transport inhibition rate (%) = (ODblank − ODexperimental)/ODblank × 100%.

[5] = tested on: C2O4^2− transport, MDCK cells; assay: In vitro litholytic activity: C2O4^2− transport inhibition, Transwell chamber with MDCK cells; format: cell-based, canine; details: for inhibition at 100 µM: Canis lupus familiaris, 100 μmol/L, MDCK cells in Transwell, mean ± SD of three replicates, read-out: Transport Inhibition Rate (%) C2O4^2−; for C2O4^2− transport inhibition activity at different time periods: 1, 2, and 3 h (Figure 4)
Procedure: as §4, §5

For `Cc1cc(OCc2ccccc2)c(C)c(O)c1C(=O)Oc1cc(C)c(C(=O)OC(C)C)c(O)c1C` [6m′, 3-hydroxy-4-(isopropoxycarbonyl)-2,5-dimethylphenyl 4-(benzyloxy)-2-hydroxy-3,6-dimethylbenzoate], the melting point was 135 to 138 °C, the inhibition at 100 µM [1] was -0.36 ± 0.4% and the inhibition at 100 µM [2] was -4.93 ± 2.95%. The inhibition at 100 µM [3] was less than 0%, the inhibition at 100 µM [4] was -2.06 ± 0.09% and the inhibition at 100 µM [5] was 2.28 ± 1.34%.

Work on `C=CCOC(=O)c1c(C)cc(OC(=O)c2c(C)cc(OCC=C)c(C)c2O)c(C)c1O` [6g′, allyl 4-(4-(allyloxy)-2-hydroxy-3,6-dimethylbenzoyloxy)-2-hydroxy-3,6-dimethylbenzoate] yielded a melting point of 110 to 113 °C, an inhibition at 100 µM [1] of 5.29 ± 0.15% and an inhibition at 100 µM [2] of 18.6 ± 2.2%. It also gave an inhibition at 100 µM [3] of less than 0%, an inhibition at 100 µM [4] of 2.79 ± 0.13% and an inhibition at 100 µM [5] of -11.3 ± 1.9%.

Compound `CCCOC(=O)c1c(C)cc(OC(=O)c2c(C)cc(OCC)c(C)c2O)c(C)c1O` [Compound 6j, 3-hydroxy-2,5-dimethyl-4-(propoxycarbonyl)phenyl 4-ethoxy-2-hydroxy-3,6-dimethylbenzoate] has a melting point of 154 to 157 °C, an inhibition at 100 µM [1] of 5.2 ± 3.6% and an inhibition at 100 µM [2] of 5.75 ± 1.1%. For the same compound, the inhibition at 100 µM [3] was less than 0%, the inhibition at 100 µM [4] was 4.45 ± 0.29% and the “C2O4^2− transport inhibition activity at different time periods” value [5] was “very strong and continual inhibitory activities”. For the same compound, the inhibition at 100 µM [5] was 42.3 ± 1.66%.

In the case of `CCCOc1cc(C)c(C(=O)Oc2cc(C)c(C(=O)OC(C)C)c(O)c2C)c(O)c1C` [Compound 6t, 3-hydroxy-4-(isopropoxycarbonyl)-2,5-dimethylphenyl 2-hydroxy-3,6-dimethyl-4-propoxybenzoate], the melting point is reported as 112 to 115 °C, the inhibition at 100 µM [1] is reported as -37.6 ± 0.55% and the inhibition at 100 µM [2] is reported as -44.1 ± 3.5%. The inhibition at 100 µM [3] was 1.42%, the inhibition at 100 µM [4] was -1.74 ± 0.29% and the inhibition at 100 µM [5] was 11.9 ± 5.83%.

`Cc1cc(OCc2ccccc2)c(C)c(O)c1C(=O)Oc1cc(C)c(C(=O)OCC#N)c(O)c1C` [6o′, 4-((cyanomethoxy)carbonyl)-3-hydroxy-2,5-dimethylphenyl 4-(benzyloxy)-2-hydroxy-3,6-dimethylbenzoate] gave a melting point of 151 to 155 °C, an inhibition at 100 µM [1] of -3.28 ± 0.75% and an inhibition at 100 µM [2] of -24 ± 1.5%. It also gave an inhibition at 100 µM [3] of less than 0%, an inhibition at 100 µM [4] of -1.82 ± 0.23% and an inhibition at 100 µM [5] of 2.03 ± 1.07%.

Compound `C=CCOC(=O)c1c(C)cc(OC(=O)c2c(C)cc(OC)c(C)c2O)c(C)c1O` [Compound 6f, allyl 2-hydroxy-4-(2-hydroxy-4-methoxy-3,6-dimethylbenzoyloxy)-3,6-dimethylbenzoate] has a melting point of 155 to 157 °C, an inhibition at 100 µM [1] of -0.5 ± 0.1% and an inhibition at 100 µM [2] of -0.61 ± 0.6%. For the same compound, the inhibition at 100 µM [3] was less than 0%, the inhibition at 100 µM [4] was -3.66 ± 0.25% and the inhibition at 100 µM [5] was 6.89 ± 1.5%.

For `C=CCOc1cc(C)c(C(=O)Oc2cc(C)c(C(=O)OCc3ccccc3)c(O)c2C)c(O)c1C` [6i′, benzyl 4-(4-(allyloxy)-2-hydroxy-3,6-dimethylbenzoyloxy)-2-hydroxy-3,6-dimethylbenzoate], the melting point was 75 to 78 °C, the inhibition at 100 µM [1] was -12.9 ± 1.6% and the inhibition at 100 µM [2] was -8.43 ± 2.85%. It also gave an inhibition at 100 µM [3] of 2.43 ± 0.3%, an inhibition at 100 µM [4] of 2.68 ± 0.11% and an inhibition at 100 µM [5] of 11.4 ± 1.13%.

For `CCCOc1cc(C)c(C(=O)Oc2cc(C)c(C(=O)OCC#N)c(O)c2C)c(O)c1C` [Compound 6s, 4-((cyanomethoxy)carbonyl)-3-hydroxy-2,5-dimethylphenyl 2-hydroxy-3,6-dimethyl-4-propoxybenzoate], the melting point was 135 to 138 °C, the inhibition at 100 µM [1] was -27.9 ± 0.5% and the inhibition at 100 µM [2] was -6.21 ± 0.3%. For the same compound, the inhibition at 100 µM [3] was less than 0%, the inhibition at 100 µM [4] was -1.74 ± 0.12% and the inhibition at 100 µM [5] was 15.7 ± 1.13%.

With `CCOc1cc(C)c(C(=O)Oc2cc(C)c(C(=O)OCc3ccccc3)c(O)c2C)c(O)c1C` [Compound 6n, benzyl 4-(4-ethoxy-2-hydroxy-3,6-dimethylbenzoyloxy)-2-hydroxy-3,6-dimethylbenzoate] the melting point was 129 to 131 °C, the inhibition at 100 µM [1] was -3.98 ± 0.15% and the inhibition at 100 µM [2] was -4.47 ± 0.2%. For the same compound, the inhibition at 100 µM [3] was 0.36 ± 0.8%, the inhibition at 100 µM [4] was -2.13 ± 0.3% and the inhibition at 100 µM [5] was 0.11 ± 0.7%.

`C=CCOc1cc(C)c(C(=O)Oc2cc(C)c(C(=O)OCC#N)c(O)c2C)c(O)c1C` [6h′, allyl 4-((cyanomethoxy)carbonyl)-3-hydroxy-2,5-dimethylphenyl 4-(allyloxy)-2-hydroxy-3,6-dimethylbenzoate] gave a melting point of 124 to 127 °C, an inhibition at 100 µM [1] of -14.4 ± 2.4% and an inhibition at 100 µM [2] of 0.62 ± 0.7%. The inhibition at 100 µM [3] was less than 0%, the inhibition at 100 µM [4] was -0.38 ± 0.16% and the inhibition at 100 µM [5] was 10.7 ± 1.41%.

Work on `Cc1cc(OC(=O)c2c(C)cc(OC(C)C)c(C)c2O)c(C)c(O)c1C(=O)OC(C)C` [Compound 6y, 3-hydroxy-4-(isopropoxycarbonyl)-2,5-dimethylphenyl 2-hydroxy-4-isopropoxy-3,6-dimethylbenzoate] yielded a melting point of 140 to 143 °C, an inhibition at 100 µM [1] of 29.4 ± 1.85% and an inhibition at 100 µM [2] of -43.3 ± 3.25%. For the same compound, the inhibition at 100 µM [3] was less than 0%, the inhibition at 100 µM [4] was 3.47 ± 0.3% and the inhibition at 100 µM [5] was -26.3 ± 5.41%.

`CCCOC(=O)c1c(C)cc(OC(=O)c2c(C)cc(OC(C)C)c(C)c2O)c(C)c1O` [Compound 6x, 3-hydroxy-2,5-dimethyl-4-(propoxycarbonyl)phenyl 2-hydroxy-4-isopropoxy-3,6-dimethylbenzoate] gave a melting point of 117 to 120 °C, an inhibition at 100 µM [1] of -1.11 ± 1.75% and an inhibition at 100 µM [2] of -1.92 ± 0.25%. The inhibition at 100 µM [3] was less than 0%, the inhibition at 100 µM [4] was 2.74 ± 0.22% and the inhibition at 100 µM [5] was -5.42 ± 2.83%.

For `CCOc1cc(C)c(C(=O)Oc2cc(C)c(C(=O)OCC#N)c(O)c2C)c(O)c1C` [Compound 6m, 4-((cyanomethoxy)carbonyl)-3-hydroxy-2,5-dimethylphenyl 4-ethoxy-2-hydroxy-3,6-dimethylbenzoate], the melting point was 160 to 163 °C, the inhibition at 100 µM [1] was -2.99 ± 6% and the inhibition at 100 µM [2] was -29.3 ± 1.75%. The inhibition at 100 µM [3] was less than 0%, the inhibition at 100 µM [4] was 2.57 ± 0.1% and the “C2O4^2− transport inhibition activity at different time periods” value [5] was “very strong and continual inhibitory activities”. The inhibition at 100 µM [5] was 61 ± 2.75%.

— publication PMC10222548, “Semisynthesis, Biological Evaluation and Molecular Docking Studies of Barbatic Acid Derivatives as Novel Diuretic Candidates” (Molecules, 2023)
